Read-outs that look alike come from different tables or passages of the source. Each block holds one compound with its values, some of them ahead of it.
Legend:
[1] = In-vitro cornea permeability study (vertical diffusion apparatus); assay type: in vitro ADME, rabbit; settings: for CPA levels detected on the other side of the cornea membrane (receiver chamber): compound applied to donor side of rabbit cornea membrane, GBR buffer pH 7.4, 37° C.; for cornea permeability: topical delivery to cornea
Method: The compounds (2a) and (2g) were prepared in powder form by Inotek Pharmaceuticals Corp. (Lexington, Mass.). Low-permeability control compound atenolol and all other chemicals were purchased from Sigma (St. Louis, Mo.). The buffer used in the permeability assessment was a glutathione-bicarbonated Ringer's (GBR) solution (110 mM NaCl, 5 mM KCl, 1 mM NaH2PO4, 30 mM NaHCO3, 1 mM CaCl2, 0.75 mM Mg Cl2, 5 mM D-glucose, and 0.3 mM reduced glutathione), pH 7.4, which was freshly prepared on the day of the experiment and oxygenated with O2/CO2 (95:5) to pH 7.4.
The compounds (2a) and (2g) were reconstituted in saline and diluted (10-fold) into the assay at a final concentration between 50 μM and 2.6 mM. Male Dutch-belted pigmented rabbits (1.5-2.5 kg body weight, 3-3.5 months old) were purchased from Covance Research Products Inc. (Denver, Pa.). The animal handling performed in this study conformed to the Guiding Principles in the Care and Use of Animals (DHEW Publication, NIH 80-23). The rabbits were euthanized by CO2 asphyxiation, and the heads were transported on ice to a testing facility, where dissection of the eyes was performed.
The corneal tissues were excised and mounted on a Harvard vertical diffusion apparatus as shown in FIG. 3 with a diffusion area of 0.64 cm2. Preheated (37° C.), pH 7.4. GBR buffer was added to the mucosal (1.5 mL) and the serosal (1.5 mL) chambers. The diffusion apparatus was maintained at 37° C. throughout the entire transport experiment. Oxygenation and agitation were achieved by bubbling O2/CO2 (95:5) through each chamber at a rate of 5-6 bubbles per second. After the 30-minute equilibration, blank GBR buffer in the mucosal (donor) chamber was withdrawn and replaced with GBR assay buffer containing the compound (2a) or the compound (2g). The transport experiments lasted 2 hours and were performed in duplicate. Every 60 minutes, 0.2-mL samples were collected from the serosal (receiver) chamber and replenished with 0.2-mL blank GBR buffer, except at the last time point; at the end of the experiment, samples were also collected from the mucosal (donor) chambers for mass balance determination.
After the transport experiment, tissue integrity (system suitability) was assessed by measuring the permeation of a low permeability control compound, atenolol, across the tissue. Donor chamber contents were replaced with GBR buffer containing 100μM atenolol, and receiver chambers were replaced with fresh blank GBR buffer. After 30 minutes of incubation, samples were collected from both chambers for analysis. The post-experimental system suitability assessment was considered acceptable if duplicate measurements yielded a mean apparent permeability (Papp) value for atenolol <1·10^−6 cm/s.
Compound A and compounds (2a) and (2g) and atenolol concentrations in the donor and receiver chambers were analyzed by LC-MS/MS methods. Apparent permeability (Papp) values were calculated using the following equation: Papp=(dCr/dt)·Vr/(A·C0)
Where, dCr /dt was the slope of the linear portion of the cumulative concentration in the receiver compartment over time in μM/sec, Vr was the volume of the receiver chamber in cm^3, A was the diffusion area in cm^2, and C0 was the measured dosing concentration in μM.
Recovery was calculated using the following equation: Recovery=100·([…])/(Vd·C0)
Where, Vr was the volume of the receiver compartment in cm^3, Vd was the volume of the donor compartment in cm^3, C0 was the dosing concentration in μM, Cr^final was the cumulative receiver concentration in μM and Cd^final was the donor concentration in μM at the end of the incubation.

intraocular pressure [2] = assay: IOP of human subjects after topical administration of Compound A to the cornea; assay type: in vivo
Text: As a result of this analysis, CPA has been identified as an active metabolite in clinical studies after the topical administration of Compound A to the cornea of human subjects.

[3] = Analysis of human plasma after topical administration of Compound A; assay type: in vivo; settings: human subject, topical to the cornea, LC/MS/MS
Method: After the administration of Compound A topically to a cornea of a human, at selected time points (e.g., Day 1: pre-dose, 5, 15, 25, 35. and 45 min and 1, 2, 4, 8 and 24 hours) samples of whole blood (10 mL) were collected for pharmacokinetic assessments using a vacutainer tube containing sodium heparin as an anticoagulant, via catheter, saline lock, or by venipuncture. The blood components were separated by centrifugation at 4° C. following standard clinical laboratory procedures for preparation of plasma from whole blood (e.g., 3000 rpm for approximately 10 min). For each sample, approximately 1 mL of plasma was stored at −20° C. or colder until analysis for Compound A and CPA concentration. Human plasma samples were analyzed for Compound A concentrations using a validated liquid chromatography/tandem mass spectrometry (LC/MS/MS) method with a lower limit of quantitation (LLOQ) of 10.0 pg/mL and a linear range from 10.0 to 2000 pg/mL. Plasma concentrations of (N(6)-cyclopentyladenosine, CPA) were also measured in some samples using a validated LC/MS/MS method with a lower limit of quantitation of 10.0 pg/mL and a linear range from 10.0 to 2000 pg/mL.

[4] = In vivo study of CPA concentration in the anterior chamber after topical administration to the cornea; settings: Dutch Belted rabbits, topical to the cornea (FIG. 4)
[5] = test system: optic nerve head tissue blood flow; settings: 10 nmol, injected intravitreally, rabbits; cited from earlier work
intraocular pressure [6] = settings: topical in DMSO, three mice, cited from earlier work
intraocular pressure [7] = settings: CPA 165 μg; cited from earlier work

- cornea permeability [1]: significant cornea permeability
SMILES: CC(C)C(=O)OC[C@H]1O[C@@H](n2cnc3c(NC4CCCC4)ncnc32)[C@H](O)[C@@H]1O [Compound 2a, N^6-Cyclopentyl-5′-O-isobutyryl-adenosine]
- CPA levels detected on the other side of the cornea membrane (receiver chamber) [1]: significant levels of CPA were measureable

- CPA in plasma after administration of Compound A [3]: detection of CPA in the plasma
SMILES: O=[N+]([O-])OC[C@H]1O[C@@H](n2cnc3c(NC4CCCC4)ncnc32)[C@H](O)[C@@H]1O [Compound A, ((2R,3S,4R,5R)-5-(6-(cyclopentylamino)-9H-purin-9-yl)-3,4-dihydroxytetrahydrofuran-2-yl)methyl nitrate]
- CPA levels detected on the other side of the cornea membrane (receiver chamber) [1]: significant levels of CPA on the other side of the cornea membrane
- IOP course after buildup of CPA in plasma (intraocular pressure [2]): continues to decline
- transient elevation in IOP (intraocular pressure [2]): no transient elevation in IOP is seen
- concentration of CPA in the anterior chamber over time [4]: build up in concentration of CPA in the anterior chamber over time

- cornea permeability [1]: significant cornea permeability
SMILES: CCCCCCCC(=O)OC[C@H]1O[C@@H](n2cnc3c(NC4CCCC4)ncnc32)[C@H](O)[C@@H]1O [Compound 2g, N^6-Cyclopentyl-5′-O-octanoyl-adenosine]
- CPA levels detected on the other side of the cornea membrane (receiver chamber) [1]: significant levels of CPA were measureable

SMILES: OC[C@H]1O[C@@H](n2cnc3c(NC4CCCC4)ncnc32)[C@H](O)[C@@H]1O [CPA, N^6-cyclopentyladenosine]
- optic nerve head tissue blood flow [5]: increased the optic nerve head tissue blood flow
- change in IOP (intraocular pressure [6]; CPA at 100 nM): −6.8 mm Hg
- change in IOP (intraocular pressure [6]; CPA at 1 mM): −1.0 mm Hg
- CPA levels detected on the other side of the cornea membrane (receiver chamber) [1]: much less than that detected when Compound A is topically applied to the cornea
- cornea permeability [1]: does not have sufficient cornea permeability
- effect on rabbit IOP (intraocular pressure [7]): reduction of rabbit IOP
- concentration of CPA in the anterior chamber over time [4]: build up in concentration of CPA in the anterior chamber over time
